Values belong to the compound of their own block, whether it stands above or below them.
Key:
anti-DBP MAb [1] = experiment: Hapten coated icELISA (DBAP directly linked to polystyrene); format: binding, mouse; conditions: for CR (cross-reactivity): CR (%) = IC50 DBP/IC50 analogue×100; for inhibition: at 10 mg/mL; for antibody recognition: specificity of MAb
Description: (§1) An icELISA was used to assess the sensitivity of the MAb to free DBP and the cross-reactivities of structurally related compounds to the antibody. For competition, 50 µL of standards or diluted samples in assay buffer were placed in the wells, and 50 µL of the anti-DBP MAb diluted with assay buffer was added. After incubated for 1.5 h at 25°C, the plate was washed. The following procedure was followed as described for the inELISA. […] Standards and samples were run in triplicate wells, and the mean absorbance values were processed. Standard curves were obtained by plotting absorbance against the logarithm of analyte concentration and fitted with a logistic four-parameter equation y = (A−D)/[1+(x/C)^B]+D, where A is the absorbance value with no analyte present, B is the slope near the midpoint inhibition concentration, C is the concentration of analyte giving 50% inhibition (IC50), and D is the minimum absorbance value at infinite concentration of the analyte, [21]. Dynamic range was established between the concentrations producing 20% and 80% inhibition (IC20–IC80 or 80%–20% of the maximum response). Limit of detection (LOD) was determined as the concentration corresponding to 10% inhibitory concentration (IC10 or 90% of the maximum response) [22]–[24].
Polystyrene surface was first carboxylated by permanganate oxidation. Microwells were filled with a solution of 5% KMnO4 in 0.6 mol/L H2SO4 (150 µL/well) for 60 min at 60°C. The plates were washed with 6 mol/L HCl (3×5 min, 200 µL/well) to remove the brown manganese oxide and rinsed three times with distilled water giving polystyrene-COOH microwells [25]. Then 150 µL of EDC and hapten DBAP in 0.1 mol/L MES buffer (pH 5.0) were placed in the wells and incubated overnight under shaking (Fig. 2). The subsequent procedures were the same as conjugate coated inELISA or icELISA under optimal condition. The essential steps in direct attachment of hapten DBAP to polystyrene surface such as concentrations of EDC and conjugation temperatures were determined by the amount of antibody on the modified polystyrene surface measured by inELISA with coating concentration of 2 µg/mL DBAP and MAb dilution of 1∶2000. The optimal coating concentration of DBAP and dilution of MAb were determined by checkerboard titration.
To determine the specificity of MAb produced, the ability of the MAb to recognize several structurally related compounds (analogues) was tested by performing hapten coated icELISA and determining their respective IC50 values. The cross-reactivity (CR) values were calculated according to the following equation CR (%) = IC50 DBP/IC50 analogue×100 [23], [26].

MAb = experiment: Binding of MAb to hapten linked on polystyrene surface; set-up: species or system mouse; conditions: carboxylated hapten linked to polystyrene surface; absorbance at 492 nm too low
Description: Although methods had already been reported for linking hapten to polystyrene surface, [11], it was not applicable to the hapten coated ELISA for DBP because the MAb produced hardly bound to the carboxylated hapten DBCP on polystyrene (The absorbance value at 492 nm was too low.). Thus it was needed to immobilize the aminated hapten DBAP to the surface of polystyrene. Holthues et al had linked an aminated hapten ABA–atrazine to a glutaraldehyde polymer network directly bound to polystyrene surface and developed very sensitive ELISA to detect terbutryn. However, it was a failure to establish hapten coated ELISA for DBP based on covalently linking DBAP to a glutaraldehyde polymer network on polystyrene surface. […] The hapten coated format presented is proposed as generally applicable, because the carboxyl on modified microtiter plate surface enables stable immobilization of aminated or hydroxylated hapten through EDC.

polyclonal antibody = system: polyclonal antibody; set-up: method as in PMID 16947007; conditions: cited from earlier work
[2] = system: antibodies in hybridoma culture supernatants; experiment: Hybridoma screening by icELISA with 1 µg/mL DBAP-BSA; format: binding, mouse; conditions: three competitive clones of 352 wells; coated antigen 1 µg/mL DBAP-BSA
Description: SP 2/0 murine myeloma cells were cultured in DMEM supplemented with 15% fetal bovine serum and 1% penicillin–streptomycin. Cell fusion and hybridoma culture procedures were carried out essentially as described by James. Mice splenocytes were mixed with SP 2/0 cells at the ratio of 5∶1 and centrifuged at 450 g for 5 min. One milliliters of polyethylene glycol solution at 37°C was dropped to the cell pellet over 1 min. The cell pellet was rotated for further 1 min, then 1 mL of DMEM added over 1 min, 2 mL of DMEM over 2 min. Finally, 12 mL was added over 2 min. After centrifugation at 450 g for 5 min, the cells were pelleted again, resuspended in HAT medium (DMEM containing 15% fetal bovine serum, 1% penicillin–streptomycin and 2% HAT media supplement) and plated into 96-well plates in which normal mouse peritoneal exudate cells (as feeder cells) had already been cultured 1 day before fusion. The colonies were fed every fifth day with freshly prepared HAT medium. […] The ratio of both absorbances was used as the criterion for selecting the best antibody-secreting clones. […]
An icELISA was used to assess the sensitivity of the MAb to free DBP and the cross-reactivities of structurally related compounds to the antibody. […] Standards and samples were run in triplicate wells, and the mean absorbance values were processed. […]

anti-DBP MAb [3] = experiment: Conjugate coated indirect competitive ELISA (icELISA), DBAP-BSA coated; format: binding, mouse
Description: Checkerboard titration, in which purified MAb was titrated against varying amounts of the coating hapten-conjugate was used to measure the reactivity of antibodies and to select an appropriate coating concentrations and antibody dilutions for icELISA [19]. The checkerboard assays were performed with inELISA. Microtiter plates were coated with 100 µL/well of hapten-protein conjugates (0, 0.125, 0.25, 0.5, and 1 µg/mL) in 0.05 mol/L carbonate buffer (pH 9.6) and incubated overnight at 4°C. The plates were washed three times with PBST (0.01 mol/L PBS containing 0.05% Tween-20, pH 7.4, 200 µL/well) and were blocked with 3% (w/v) skim milk powder (SMP) in PBS (250 µL/well) for 1 h at 37°C. After another washing step, 100 µL/well of purified anti-DBP MAb (1∶1000, 1∶2000, 1∶4000, 1∶8000, 1∶16000, and 1∶32000) diluted in PBS containing 0.1% BSA was added. After incubation for 1.5 h at 25°C, the plates were washed. Subsequently, the plates were incubated for 1 h at 37°C with 10000-fold diluted HRP-anti-mIgG in PBS containing 0.1% BSA (100 µL/well). After another washing step, 100 µL/well of freshly prepared O-phenylenediamine (OPD) solution (0.4 mg/mL OPD and 0.012% H2O2 in 0.05 mol/L citrate-phosphate, pH 5.0) was added. The reaction was stopped with 2 mol/L sulfuric acid (50 µL/well) after an incubation of 15 min at room temperature keeping away from light. The absorbance was recorded at a primary wavelength of 492 nm with a reference wavelength of 630 nm.
as §1
The influence of several experimental parameters on assay characteristics was examined in order to improve the sensitivity of the immunoassay. Concentrations of coating antigen and dilutions of MAb were determined by checkerboard titration. Other different experimental parameters such as organic solvents, pH, ionic strength, and detergent in assay buffer, and blocking agents were studied sequentially in this order using the above described icELISA protocol. Each time an evaluated parameter was changed, the new value was used for the evaluation of the next condition. Criteria used to evaluate the assay performances were the absorbance of zero concentration of DBP (Amax) and IC50.

[4] = cross-reactivity study, hapten coated icELISA, mean ±SD of three replicates
[5] = hapten coated icELISA, optimized conditions
[6] = conjugate coated icELISA, optimized conditions

Structure (SMILES): CCCCOC(=O)c1ccccc1C(=O)OCc1ccccc1 [BBP, Butyl benzyl phthalate]
IC50 (anti-DBP MAb [1]; [4]): 0.0721 ± 0.0142 µg/mL

Structure (SMILES): CCCCOC(=O)c1ccc(N)cc1C(=O)OCCCC [DBAP, dibutyl 4-aminophthalate]
CR (cross-reactivity) (anti-DBP MAb [1]; hapten coated icELISA): 27.8%
IC50 (anti-DBP MAb [1]; [4]): 0.0529 ± 0.0124 µg/mL

binding of MAb to hapten on polystyrene (MAb): hardly bound
Structure (SMILES): CCCCOC(=O)c1ccc(NC(=O)CCC(=O)O)cc1C(=O)OCCCC [DBCP]

Structure (SMILES): CCCCOC(=O)c1ccccc1C(=O)OCCCC [DBP, Dibutyl phthalate]
limit of detection (LOD) (polyclonal antibody; as stated by Zhang et al): 0.02 µg/L
concentration causing 50% of the maximal fluorescence quenching (polyclonal antibody; maximum concentration used did not cause 50% quenching): > 1000 µg/L
IC50 [2]: < 5 µg/mL
CR (cross-reactivity) (anti-DBP MAb [1]; hapten coated icELISA): 100%
IC50 (anti-DBP MAb [1]; [4]): 0.0147 ± 0.0028 µg/mL
IC50 (anti-DBP MAb [1]; hapten coated icELISA standard curve, optimized conditions (DBAP 1 µg/mL, MAb 1:1000)): 0.0146 µg/mL
LOD (IC10) (anti-DBP MAb [1]; [5]): 0.000426 µg/mL
dynamic range (IC20–IC80) (anti-DBP MAb [1]; [5]): 0.00174 to 0.123 µg/mL
IC50 (blocking agent optimization) (anti-DBP MAb [3]; OVA as a blocking reagent (Fig. 4D)): 0.10813 ± 0.01952 µg/mL
IC50 (lowest, pH optimization) (anti-DBP MAb [3]; assay buffer pH 6.8 (Fig. 4A)): 177.04±15.37 ng/mL
IC50 (anti-DBP MAb [3]; assay buffer with 0% DMF (DMF series) in PBS containing 0.1% BSA, mean ±SD, three replicates): 0.369 ± 0.0274 µg/mL
IC50 (anti-DBP MAb [3]; assay buffer with 0% DMSO (DMSO series) in PBS containing 0.1% BSA, mean ±SD, three replicates): 0.392 ± 0.0702 µg/mL
IC50 (anti-DBP MAb [3]; assay buffer with 0% acetonitrile (acetonitrile series) in PBS containing 0.1% BSA, mean ±SD, three replicates): 0.471 ± 0.0306 µg/mL
IC50 (anti-DBP MAb [3]; assay buffer with 0% dioxane (dioxane series) in PBS containing 0.1% BSA, mean ±SD, three replicates): 0.797 ± 0.0198 µg/mL
IC50 (anti-DBP MAb [3]; assay buffer with 0% methanol (methanol series) in PBS containing 0.1% BSA, mean ±SD, three replicates): 1.4 ± 0.0643 µg/mL
IC50 (anti-DBP MAb [3]; assay buffer with 5% DMF in PBS containing 0.1% BSA, mean ±SD, three replicates): 0.303 ± 0.0302 µg/mL
IC50 (anti-DBP MAb [3]; assay buffer with 5% DMSO in PBS containing 0.1% BSA, mean ±SD, three replicates): 0.373 ± 0.0318 µg/mL
IC50 (anti-DBP MAb [3]; assay buffer with 5% acetonitrile in PBS containing 0.1% BSA, mean ±SD, three replicates): 0.444 ± 0.0118 µg/mL
IC50 (anti-DBP MAb [3]; assay buffer with 5% dioxane in PBS containing 0.1% BSA, mean ±SD, three replicates): 1.679 ± 0.271 µg/mL
IC50 (anti-DBP MAb [3]; assay buffer with 5% methanol in PBS containing 0.1% BSA, mean ±SD, three replicates): 0.637 ± 0.0671 µg/mL
IC50 (anti-DBP MAb [3]; assay buffer with 10% DMF in PBS containing 0.1% BSA, mean ±SD, three replicates): 0.223 ± 0.0118 µg/mL
IC50 (anti-DBP MAb [3]; assay buffer with 10% DMSO in PBS containing 0.1% BSA, mean ±SD, three replicates): 0.52 ± 0.0661 µg/mL
IC50 (anti-DBP MAb [3]; assay buffer with 10% acetonitrile in PBS containing 0.1% BSA, mean ±SD, three replicates): 0.325 ± 0.0088 µg/mL
IC50 (anti-DBP MAb [3]; assay buffer with 10% dioxane in PBS containing 0.1% BSA, mean ±SD, three replicates): 2.509 ± 0.504 µg/mL
IC50 (anti-DBP MAb [3]; assay buffer with 10% methanol in PBS containing 0.1% BSA, mean ±SD, three replicates): 0.624 ± 0.0145 µg/mL
IC50 (anti-DBP MAb [3]; assay buffer with 20% DMF in PBS containing 0.1% BSA, mean ±SD, three replicates): 0.345 ± 0.0175 µg/mL
IC50 (anti-DBP MAb [3]; assay buffer with 20% DMSO in PBS containing 0.1% BSA, mean ±SD, three replicates): 0.423 ± 0.053 µg/mL
IC50 (anti-DBP MAb [3]; assay buffer with 20% acetonitrile in PBS containing 0.1% BSA, mean ±SD, three replicates): 0.428 ± 0.0112 µg/mL
IC50 (anti-DBP MAb [3]; assay buffer with 20% dioxane in PBS containing 0.1% BSA, mean ±SD, three replicates): 2.191 ± 0.224 µg/mL
IC50 (anti-DBP MAb [3]; assay buffer with 20% methanol in PBS containing 0.1% BSA, mean ±SD, three replicates): 0.889 ± 0.0186 µg/mL
IC50 (anti-DBP MAb [3]; conjugate coated icELISA standard curve, optimized conditions (DBAP-BSA 0.25 µg/mL, MAb 1:8000)): 0.106 µg/mL
LOD (IC10) (anti-DBP MAb [3]; [6]): 0.0105 µg/mL
dynamic range (IC20–IC80) (anti-DBP MAb [3]; [6]): 0.0252 to 0.445 µg/mL

Structure (SMILES): CCCCC(CC)COC(=O)c1ccccc1C(=O)OCC(CC)CCCC (stereo not drawn) [DEHP, di(2-ethylhexyl) phthalate]
inhibition (anti-DBP MAb [1]; hapten coated icELISA): 1.12% inhibition at 10 mg/mL
antibody recognition (anti-DBP MAb [1]; hapten coated icELISA): absence of recognition

Structure (SMILES): CCOC(=O)c1ccccc1C(=O)OCC [DEP, diethyl phthalate]
inhibition (anti-DBP MAb [1]; hapten coated icELISA): 5.08% inhibition at 10 mg/mL
antibody recognition (anti-DBP MAb [1]; hapten coated icELISA): absence of recognition

Structure (SMILES): COC(=O)c1ccccc1C(=O)OC [DMP, dimethyl phthalate]
inhibition (anti-DBP MAb [1]; hapten coated icELISA): 7.98% inhibition at 10 mg/mL
antibody recognition (anti-DBP MAb [1]; hapten coated icELISA): absence of recognition

Structure (SMILES): CCCCCCCCOC(=O)c1ccccc1C(=O)OCCCCCCCC [DOP, di(n-octyl) phthalate]
inhibition (anti-DBP MAb [1]; hapten coated icELISA): 1.15% inhibition at 10 mg/mL
antibody recognition (anti-DBP MAb [1]; hapten coated icELISA): absence of recognition

Source: article PMC3246456, “An Immunoassay for Dibutyl Phthalate Based on Direct Hapten Linkage to the Polystyrene Surface of Microtiter Plates” (PLoS ONE, 2011)
